Active and inactive are the calls of the source. The rule behind the calls is not given here.
System: Cortical neurone
Assay: Induction of axonal regeneration in mouse cortical neurons assessed as reversal of Abeta (25 to 35)-induced axonal atrophy at 10 uM treated 3 days after Abeta (25 to 35) challenge and measured 4 days post compound dosing by pNF-H and MAP2 immunostaining method
Format: functional

SMILES | Activity
O=C(O)/C=C/c1ccc(O[C@@H]2O[C@H](CO)[C@@H](O)[C@H](O)[C@H]2O)c(O)c1 | Active
C[C@@H]1O[C@@H](O[C@H]2[C@H](Oc3cc(O)c4c(c3)O[C@H](c3ccc(O)c(O)c3)CC4=O)O[C@H](CO)[C@@H](O)[C@@H]2O)[C@H](O)[C@H](O)[C@H]1O | Active

Reference: ChEMBL document CHEMBL3608266, “Active Constituents from Drynaria fortunei Rhizomes on the Attenuation of Aβ(25-35)-Induced Axonal Atrophy” (J Nat Prod, 2015)
